One data set concerns LPS-induced septic mice. The data set is described as follows: LPS-induced sepsis mouse model, survival. The class given is in vivo. The following applies: 40 mg kg−1 s.c. 30 min after LPS 40 mg kg−1 i.p.; 80 h or longer observation; LPS group 0%. On the procedure: For LPS‐induced sepsis model experiments, 25 male C57BL/6J mice, 6–8 weeks old, weighing 20–25 g, were randomly divided into five groups (n = 5 in each group), and survival was examined. The abdominal cavity was injected with 40 mg kg^−1 LPS to induce sepsis. 30 min later, mice in group 1 were injected subcutaneously with 0.9% NaCl, mice in groups 2–4 were injected subcutaneously with CV122 (20 mg kg^−1), CV122 (30 mg kg^−1), and CV122 (40 mg kg^−1), respectively, and mice in group 5 were injected subcutaneously with Suramin (40 mg kg^−1). The status of the mice was observed and recorded every day.

The subject of the next data set is TNF-α, IL-6, IL-1β. The data set can be described thus: Cytokine ELISA in serum and organs of LPS-induced septic mice. The conditions noted are these: 40 mg kg−1, 30 min after LPS 20 mg kg−1 i.p.; 3 h after LPS; vs LPS group. It is filed as in vivo, mouse. On the procedure: For LPS‐induced sepsis model experiments, twenty male C57BL/6J mice were randomly divided into four groups (n = 5 in each group). Mice in group 1 were injected with 0.9% NaCl, while mice in groups 2–4 were injected intraperitoneally with LPS (20 mg kg^−1). After 30 min, mice in group 3 were injected with 40 mg kg^−1 CV122 and mice in group 4 were injected with 40 mg kg^−1 Suramin. After 3 h, blood was taken and the lungs, liver, spleen, kidney heart, and brain were taken. For CLP experiments, the mice were euthanized 24 h after the establishment of the sepsis model. Blood samples were collected from the eyeballs of mice, the lungs were taken. These organs were ground at 0.1 g mL^−1 in PBS, centrifuged and the supernatant collected. Serum and organ tissue supernatants were used to detect cytokine levels using the mouse TNF‐α, IL‐6, IL‐1β ELISA MAXTM Deluxe Set.

Another data set concerns HUVECs. The data set can be described thus: Cell survival assay (CCK-8) in HUVECs. The class given is cell-based, human.

Take `Cc1ccc(C(=O)Nc2ccc(S(=O)(=O)O)c3cc(S(=O)(=O)O)cc(S(=O)(=O)O)c23)cc1NC(=O)c1cccc(NC(=O)Nc2cccc(C(=O)Nc3cc(C(=O)Nc4ccc(S(=O)(=O)O)c5cc(S(=O)(=O)O)cc(S(=O)(=O)O)c45)ccc3C)c2)c1` [Suramin, reference compound]: the survival rate with LPS-induced septic mice worked out at 60%. Besides, the “TNF-α, IL-6 and IL-1β levels in serum and lungs” value in the data set with TNF-α, IL-6, IL-1β was “suppress the cytokine release but to a lesser extent”. For the same compound, the “effect on survival of HUVECs” value with HUVECs (100 µM, *p < 0.05) is “significant inhibitory effect”; with HUVECs (200 µM, **p < 0.01), “significant inhibitory effect”.
